In US8741844B2, “Use of mutated antithrombins for treating or preventing coagulation disorders” (Universite Paris-Sud XI, priority 2007, dated 2014):
Read-outs that look alike come from different tables or passages of the source.

What was measured:
[1] = Fondaparinux overdose and pharmacokinetics in mice; assay type: in vivo; settings: mouse
Description: 1—Determination of the Doses of Fondaparinux Inducing an Overdose in Mice Published data concerning fondaparinux pharmacokinetics in rats (Herbert J 4197), or experimental determination of fondaparinux pharmacokinetics in mice are used to develop the model.
To induce an overdose, a 3 fold doses (300 nmol/kg, or 0.52 mg/kg) is tested. At this dose, the fondaparinux plasma concentration is about 3.5 to 4 nmol/ml (or 6 to 7 mg/L). An anti-Xa activity is determined to ensure that an overdose is obtained.
Anti FXa activity measurements is performed as previously described using a Stachrom Heparin® kit on a STA (Stago, France) or a Rotachrom Heparin® kit with procedure adapted for measurement in microplate reader (Dynatech MR 5000). A calibration curve with pentasaccharide is performed, allowing the expression of the results in nmol/ml (or in mg/L) of plasma.
In mouse, an overdose of fondaparinux is observed at 300 nmol/kg (or 0.52 mg/kg) but maximal concentration in plasma is observed less than 15 min after sub-cutaneous injection.

[2] = rats, cited from earlier work
[3] = patients, curative pentasaccharide treatment; cited from earlier work
[4] = Heparin affinity column elution with NaCl gradient; assay type: binding
Description: Conditioned media are thawed, pooled, salt concentration adjusted to 0.4 M NaCl and then applied on an heparin immobilized column (Hitrap Heparin 5 ml or Heparin-sepharose CL6B 50 ml, GE Biological) equilibrated with 10 mM Tris, or with 20 mM phosphate buffer, 0.4 M NaCl and 0.1 mM EDTA, pH 7.4. The bound proteins are eluted in the same buffer with a gradient from 0.4 M to 2 M NaCl. The fractions eluted from 0.8 M NaCl and more contained only wild type antithrombin or mutated antithrombins with high heparin affinity. […] The collected fractions are pooled and the salt concentration is decreased either by over night dialysis against 10 mM Tris, or 20 mM phosphate, and 0.1 M NaCl, pH 7.4 at 4° C. or applied on an HiPrep 26/10 desalting column equilibrated with 10 mM Tris, or 20 mM phosphate, and 0.1 M NaCl, pH 7.4. The antithrombin is then concentrated by ion exchange chromatography using a “Resource Q” 1 ml column (GE, Biological) equilibrated with 10 mM Tris, or 20 mM phosphate, and 0.1 M NaCl, pH 7.4 and eluted in the same buffer with a NaCl gradient from […] to 0.5 M or 20 mM to 0.5 M. The antithrombin concentration in each elution fraction is estimated by absorbance at 280 nm with an absorption coefficient ε=0.65 g^−1·l·cm^−1 and the integrity of purified wild type antithrombin or mutated antithrombins is tested by western blotting using the same couple of antibodies as described before, and electrophoresis on 10% acrylamide/bisacrylamide gel in native and denaturing conditions followed by coomassie brilliant blue R-250 staining (FIG. 4). Then, the antithrombin preparation is aliquoted and stored at −80° C. before use for functional assay. The same procedure is used to purify plasma antithrombin (used as internal reference) from human plasma.

Molecule | dose at which an overdose is observed [1] | Tmax ([2]; intra-venous injection of 100 nmol/kg (or 0.17 mg/kg)) | Tmax ([2]; subcutaneous injection of 100 nmol/kg (or 0.17 mg/kg)) | minimal equilibrium concentration in plasma [3] | optimal equilibrium concentration in plasma [3] | elution from heparin affinity column compared with wild type antithrombin [4]
CO[C@H]1O[C@H](COS(=O)(=O)O)[C@@H](O[C@@H]2O[C@@H](C(=O)O)[C@@H](O[C@H]3O[C@H](COS(=O)(=O)O)[C@@H](O[C@@H]4O[C@H](C(=O)O)[C@@H](O[C@H]5O[C@H](COS(=O)(=O)O)[C@@H](O)[C@H](O)[C@H]5NS(=O)(=O)O)[C@H](O)[C@H]4O)[C@H](OS(=O)(=O)O)[C@H]3NS(=O)(=O)O)[C@H](O)[C@H]2OS(=O)(=O)O)[C@H](O)[C@H]1NS(=O)(=O)O [fondaparinux] | 0.52 mg/kg | 5 min | 30 min | 0.46 to 0.62 mg/L | 1.20 to 1.26 mg/L | –
AT-N135Q: human antithrombin with substitution of the amino acid at position 135 by Glutamine | – | – | – | – | – | higher ionic strength than wild type antithrombin
